# Test results: EP4806891A1 (Kangbaida (Sichuan) Biotechnology Co., Ltd., priority 2023, dated 2025)
# Target: T1, HEK-Blue-hTLR9 cells (Homo sapiens, UniProt Q9NR96)
# T1 construct: expressed in transfected cells; host or cells: HEK-Blue-hTLR9 cells (HEK293-derived reporter line)
# T1 sequence (Q9NR96 26-1032): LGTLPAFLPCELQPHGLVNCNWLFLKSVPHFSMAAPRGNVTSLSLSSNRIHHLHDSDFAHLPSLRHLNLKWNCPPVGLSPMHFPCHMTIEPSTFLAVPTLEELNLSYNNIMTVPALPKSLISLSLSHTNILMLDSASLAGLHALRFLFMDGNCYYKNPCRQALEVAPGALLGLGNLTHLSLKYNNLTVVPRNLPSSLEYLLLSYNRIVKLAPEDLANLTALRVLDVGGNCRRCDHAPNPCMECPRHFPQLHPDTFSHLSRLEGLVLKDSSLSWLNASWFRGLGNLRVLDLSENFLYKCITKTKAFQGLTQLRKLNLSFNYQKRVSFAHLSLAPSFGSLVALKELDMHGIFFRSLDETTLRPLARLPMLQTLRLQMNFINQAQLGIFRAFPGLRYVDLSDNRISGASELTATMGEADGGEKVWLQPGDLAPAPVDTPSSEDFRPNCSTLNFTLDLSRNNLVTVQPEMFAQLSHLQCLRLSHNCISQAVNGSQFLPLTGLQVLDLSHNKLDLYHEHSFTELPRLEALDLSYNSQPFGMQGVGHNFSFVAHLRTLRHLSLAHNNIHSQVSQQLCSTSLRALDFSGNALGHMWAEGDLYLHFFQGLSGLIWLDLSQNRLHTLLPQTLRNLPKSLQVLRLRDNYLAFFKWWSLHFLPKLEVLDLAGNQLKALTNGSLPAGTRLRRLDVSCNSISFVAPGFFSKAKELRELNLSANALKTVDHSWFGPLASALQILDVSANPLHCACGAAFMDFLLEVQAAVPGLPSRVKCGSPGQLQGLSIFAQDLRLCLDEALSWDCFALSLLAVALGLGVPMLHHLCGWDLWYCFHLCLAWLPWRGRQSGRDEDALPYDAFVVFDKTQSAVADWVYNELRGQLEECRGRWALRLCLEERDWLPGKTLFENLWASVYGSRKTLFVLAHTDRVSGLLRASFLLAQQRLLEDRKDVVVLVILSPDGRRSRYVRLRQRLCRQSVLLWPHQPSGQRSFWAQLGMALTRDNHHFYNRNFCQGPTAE
# Assay: HEK-Blue-hTLR9 cell inhibition assay
# Format: cell-based
# Details: ODN2006 1 µM, 16 h, OD 620 nm, read-out: TLR9 IC50
# Experimental: HEK-Blue-hTLR7/8/9 cell inhibition assay
# 1. HEK-Blue-hTLR7/8 cells (1 × 10^4 cells/well) and HEK-Blue-hTLR9 cells (1.5 × 10^4 cells/well) were seeded in a 384-well cell culture plate, with a volume of 30 µL per well. The plate was incubated at 37°C in a 5% CO2 incubator for 4 h. 2. The compound was prepared with DMSO and diluted in DMEM medium to 10 concentrations (1:3 dilution), with final concentrations of 10000, 3333.3, 1111.1, 370.4, 123.5, 41.2, 13.7, 4.6, 1.5, and 0.5 nM; R848 was prepared with DMSO and diluted in DMEM medium, with final concentrations of 0.8 µM (HEK-Blue-hTLR7) and 3 µM (HEK-Blue-hTLR8); ODN2006 was prepared with endotoxin-free water and diluted in DMEM medium, with a final concentration of 1 µM. 3. Cells treated with DMSO were used as the blank control group, while cells treated solely with Resiquimod (R848) were used as the positive control group for HEK-Blue-hTLR7/8, and cells treated solely with ODN2006 were used as the positive control group for HEK-Blue-hTLR9. Cells treated with the test compound together with R848 or ODN2006 were used as the test group. Two parallel wells were set for each group and were placed at 37°C in a 5% CO2 incubator for incubation. 4. After being incubated for 4 h, the 384-well plate of HEK-Blue-hTLR7/8 was taken out from the incubator, and R848 alone or both R848 and the diluted compound were separately added into each well. The plate was placed at 37°C in a 5% CO2 incubator for incubation for 16 h; the 384-well plate of HEK-Blue-hTLR9 was taken out from the incubator, and ODN2006 alone or both ODN2006 and the diluted compound were added separately to each well. The plate was incubated at 37°C in a 5% CO2 incubator for 16 h. 5. After being incubated for 16 h, the 384-well plate was removed from the incubator and centrifuged at 1000 rpm for 1 minute. The optical density value of each well at 620 nm was measured using a multifunctional microplate reader. 6. The cell inhibition rate was calculated as (1-(OD620 test group-OD620 blank group)/(OD620 positive group-OD620 blank group))×100%, and the half maximal inhibitory concentration (IC50) was calculated through curve fitting. Table 1: Activity of the compounds of the present disclosure in HEK-Blue-hTLR7/8/9 cellular assays
row,SMILES,IC50 [nM]
1,"CN1CCC(C)(c2nnc([C@]34CN(c5ccc(C#N)c6ncccc56)C[C@@]3(C(F)(F)F)C4)o2)CC1 [Compound 8, 5-((1S,5R)-1-(5-(1,4-dimethylpiperidin-4-yl)-1,3,4-oxadiazol-2-yl)-5-(trifluoromethyl)-3-azabicyclo[3.1.0]hexan-3-yl)quinoline-8-carbonitrile]",> 1000
2,"N#Cc1ccc(N2C[C@]3(c4nnc(C5(F)CCNC5)o4)C[C@]3(C(F)(F)F)C2)c2cccnc12 (stereo partly drawn) [Compound 46, 5-((1S,5R)-1-(5-(3-fluoropyrrolidin-3-yl)-1,3,4-oxadiazol-2-yl)-5-(trifluoromethyl)-3-azabicyclo[3.1.0]hexan-3-yl)quinoline-8-carbonitrile]",> 10000
3,"N#Cc1ccc(N2C[C@]3(c4nnc(CC5CNC5)o4)C[C@]3(C(F)(F)F)C2)c2cccnc12 [Compound 35, 5-((1S,5R)-1-(5-(azetidin-3-ylmethyl)-1,3,4-oxadiazol-2-yl)-5-(trifluoromethyl)-3-azabicyclo[3.1.0]hexan-3-yl)quinoline-8-carbonitrile]",> 1000
4,"CN1CC(c2nnc([C@]34CN(c5ccc(C(F)(F)F)c6ncccc56)C[C@@]3(C(F)(F)F)C4)o2)C1 [Compound 4, 2-(1-methylazetidin-3-yl)-5-((1S,5R)-5-(trifluoromethyl)-3-(8-(trifluoromethyl)quinolin-5-yl)-3-azabicyclo[3.1.0]hexan-1-yl)-1,3,4-oxadiazole]",> 1000
5,"N#Cc1ccc(N2C[C@]3(c4nnc(C56CCC(NC(=O)[C@@H]7COCCN7)(CC5)CC6)o4)C[C@]3(C(F)(F)F)C2)c2cccnc12 [Compound 54, (S)-N-(4-(5-((1S,5R)-3-(8-cyanoquinolin-5-yl)-5-(trifluoromethyl)-3-azabicyclo[3.1.0]hexan-1-yl)-1,3,4-oxadiazol-2-yl)bicyclo[2.2.2]octan-1-yl)morpholine-3-carboxamide]",> 1000
6,CN1CCC(c2nnc([C@]34CN(c5ccc(C#N)c6ncccc56)C[C@@]3(C(F)(F)F)C4)o2)CC1=O (stereo partly shown) [Compound 34],> 10000
7,"N#Cc1ccc(N2C[C@]3(c4nnc(N)o4)C[C@]3(C(F)(F)F)C2)c2cccnc12 [Compound 7, 5-((1S,5R)-1-(5-amino-1,3,4-oxadiazol-2-yl)-5-(trifluoromethyl)-3-azabicyclo[3.1.0]hexan-3-yl)quinoline-8-carbonitrile]",> 10000
8,"CN(C)CC#Cc1nnc([C@]23CN(c4ccc(C#N)c5ncccc45)C[C@@]2(C(F)(F)F)C3)o1 [Compound 25, 5-((1S,5R)-1-(5-(3-(dimethylamino)prop-1-yn-1-yl)-1,3,4-oxadiazol-2-yl)-5-(trifluoromethyl)-3-azabicyclo[3.1.0]hexan-3-yl)quinoline-8-carbonitrile]",< 1000

# More lines, now with the values ahead:
row,IC50 [nM],SMILES
1,> 1000,"CN1CCC(F)(c2nnc([C@]34CN(c5ccc(C#N)n6nccc56)C[C@@]3(C(F)(F)F)C4)o2)CC1 [Compound 90, 4-((1S,5R)-1-(5-(4-fluoro-1-methylpiperidin-4-yl)-1,3,4-oxadiazol-2-yl)-5-(trifluoromethyl)-3-azabicyclo[3.1.0]hexan-3-yl)pyrazolo[1,5-a]pyridine-7-carbonitrile]"
2,> 10000,"N#Cc1ccc(N2C[C@]3(c4nnc(CCN5CCOCC5)o4)C[C@]3(C(F)(F)F)C2)c2cccnc12 [Compound 43, 5-((1S,5R)-1-(5-(morpholinoethyl)-1,3,4-oxadiazol-2-yl)-5-(trifluoromethyl)-3-azabicyclo[3.1.0]hexan-3-yl)quinoline-8-carbonitrile]"
3,> 1000,"FC(F)(F)Oc1ccc(N2C[C@]3(c4nnc(C5(F)CCNCC5)o4)C[C@]3(C(F)(F)F)C2)c2cccnc12 [Compound 96, 2-(4-fluoropiperidin-4-yl)-5-((1S,5R)-3-(8-(trifluoromethoxy)quinolin-5-yl)-5-(trifluoromethyl)-3-azabicyclo[3.1.0]hexan-1-yl)-1,3,4-oxadiazole]"
4,> 10000,"Cc1cc(N2CC3(c4nnc(C5CCN(C)CC5)o4)C[C@]3(C(F)(F)F)C2)c2cnn(C)c2n1 (stereo partly drawn) [Compound 2, 2-((5R)-3-(1,6-dimethyl-1H-pyrazolo[3,4-b]pyridin-4-yl)-5-(trifluoromethyl)-3-azabicyclo[3.1.0]hexan-1-yl)-5-(1-methylpiperidin-4-yl)-1,3,4-oxadiazole]"
5,> 10000,"CN1CC(F)(c2nnc([C@]34CN(c5ccc(C#N)c6ncccc56)C[C@@]3(C(F)(F)F)C4)o2)C1 [Compound 49, 5-((1S,5R)-1-(5-(3-fluoro-1-methylazetidin-3-yl)-1,3,4-oxadiazol-2-yl)-5-(trifluoromethyl)-3-azabicyclo[3.1.0]hexan-3-yl)quinoline-8-carbonitrile]"
6,> 1000,"CN1CCC(n2cc([C@]34CN(c5ccc(C#N)c6ncccc56)C[C@@]3(C(F)(F)F)C4)nn2)CC1 [Compound 71, 5-((1S,5R)-1-(1-(1-methylpiperidin-4-yl)-1H-1,2,3-triazol-4-yl)-5-(trifluoromethyl)-3-azabicyclo[3.1.0]hexan-3-yl)quinoline-8-carbonitrile]"
7,> 10000,"N#Cc1ccc(N2C[C@]3(c4nnc(C5CCOCC5)o4)C[C@]3(C(F)(F)F)C2)c2cccnc12 [Compound 12, 5-((1S,5R)-1-(5-(tetrahydro-2H-pyran-4-yl)-1,3,4-oxadiazol-2-yl)-5-(trifluoromethyl)-3-azabicyclo[3.1.0]hexan-3-yl)quinoline-8-carbonitrile]"
8,> 10000,"CN1CCN(c2nnc([C@]34CN(c5ccc(C#N)c6ncccc56)C[C@@]3(C(F)(F)F)C4)o2)CC1 [Compound 1, 5-((1S,5R)-1-(5-(4-methylpiperazin-1-yl)-1,3,4-oxadiazol-2-yl)-5-(trifluoromethyl)-3-azabicyclo[3.1.0]hexan-3-yl)quinoline-8-carbonitrile]"
9,< 1000,"N#Cc1ccc(N2C[C@]3(c4nnc(C56CCC(N)(CC5)CC6)o4)C[C@]3(C(F)(F)F)C2)c2cccnc12 [Compound 52, 5-((1S,5R)-1-(5-(4-aminobicyclo[2.2.2]octan-1-yl)-1,3,4-oxadiazol-2-yl)-5-(trifluoromethyl)-3-azabicyclo[3.1.0]hexan-3-yl)quinoline-8-carbonitrile]"
10,> 10000,"CN1CCC(Cc2nnc([C@]34CN(c5ccc(C#N)c6ncccc56)C[C@@]3(C(F)(F)F)C4)n2C)CC1 [Compound 38, 5-((1S,5R)-1-(4-methyl-5-((1-methylpiperidin-4-yl)methyl)-4H-1,2,4-triazol-3-yl)-5-(trifluoromethyl)-3-azabicyclo[3.1.0]hexan-3-yl)quinoline-8-carbonitrile]"
11,> 1000,"N#Cc1ccc(N2C[C@]3(c4nnc(C5CCNCC5)o4)C[C@]3(C(F)(F)F)C2)c2c(F)cnn12 [Compound 80, 3-fluoro-4-((1S,5R)-1-(5-(piperidin-4-yl)-1,3,4-oxadiazol-2-yl)-5-(trifluoromethyl)-3-azabicyclo[3.1.0]hexan-3-yl)pyrazolo[1,5-a]pyridine-7-carbonitrile]"
